Assay [1] deals with Nestin+ cells. As to conditions: AMD3100 0.15 mg/kg body weight/day by Alzet slow-release pump, tumor-bearing mice. The procedure: 8-week-old C57 BL/6 male mice having no more than […] of weight were taken and divided into control group, cachexia group (LLC), and AMD3100 group (LLC+AMD3100).
Control group: no treatment.
Cachexia group: 4×10^6 LLC was transplanted subcutaneously into the groin of mice. After 7 days, mice were anesthetized with 100 μL of 10% chloral hydrate, and Alzet slow release pumps (model: 1004) were implanted subcutaneously on the back of mice. The normal saline was contained in the pump.
AMDd3100 group: 4×10^6 LLC was transplanted subcutaneously into the groin of mice. After 7 days, mice were anesthetized with 100 μL of 10% chloral hydrate, and an Alzet slow-release pump (model: 1004) was implanted subcutaneously on its back, and AMD3100 was contained in the pump. The use amount of mice AMD3100 was 0.15 mg/kg weight/day. After 14 days of installation of the slow-release pump, the mice were killed, and the muscle and fat tissue sections were taken for immunofluorescence staining, or RNA reverse transcription for fluorescence quantitative PCR was carried out by extracting RNA reverse transcription to detect the expression of Nestin.

Assay [2] relates to muscle and fat-derived Nestin+ cells. Put plainly: Transwell migration of mouse Nestin+ cells promoted by Cxcl12. It is filed as cell-based. The following applies: 1 μmol/ml Cxcl12 under the Transwell chamber (8 μm pore), 24 hours, versus control without Cxcl12. The procedure: The Corning Transwell chamber (8 μm pore size) was placed on a 24-well plate, and muscle and fat-derived Nestin+ cells (see example 1) cultured in vitro were inoculated in the Transwell chamber with 2×10^4 cells/well, and cultured in a 5% CO2 and 37° C. incubator. Each well was added with 500 μl of DMEM/low sugar under the Transwell chamber. The experimental group contained 1 μmol/ml Cxcl12 factors, while Cxcl12 factors were not added in control group. After 24 hours, the chamber was taken out, the cells inside the chamber were wiped out with a cotton swab, and the chamber was washed gently and immobilized and rinsed twice with anhydrous alcohol; the chambers in various groups were marked, and erected on the abandoned well plate, and crystal violet dye solution was added into each well for incubate at room temperature for 15 min; excessive staining solution was washed away. The quantity of migrated cells in each group was measured under the inverted microscope. Five fields (400 times) were randomly selected to calculate the quantity of migrated cells in each group under the microscope with 3 repeated wells in each group. The average value of the results was calculated. It can be seen from FIG. 6 that Cxcl 12 can promote the migration of mouse Nestin+ cells.

On to `c1cc(CN2CCCNCCNCCCNCC2)ccc1CN1CCCNCCNCCCNCC1` [AMD3100, 1,1′-[1,4-phenylenebis(methylene)]-di-1,4,8,11-tetraazacyclotetradecane], for which the “migration of Nestin+ cells from muscles and fats toward tumor” value in assay [1] is “successfully inhibit”.

For “Cxcl 12: chemokine Cxcl12 factor added under the Transwell chamber; highly expressed in mouse tumor”, the entries for the “migration of mouse Nestin+ cells (quantity of migrated cells)” value in assay [2] and in assay [2] (listed as Cxcl12) were “promote” and “promoted”, respectively.

Source of the values: patent US20200215029A1, “APPLICATION OF AMD3100 IN PREPARATION OF DRUG FOR TREATING AND/OR PREVENTING CACHEXIA AND PHARMACEUTICAL COMPOSITION THEREOF” (SUN YAT-SEN UNIVERSITY, priority 2017, published 2020).
